The target in assay [1] is Serotonin (5-Hydroxytryptamine) 5-HT1A (Homo sapiens, UniProt P08908). Description: Safety screen. In kind it is binding.
Description: (§1) Blood cell counts, kinase profiler, safety screen, bacterial cytotoxicity, Ames, micronucleus assays were performed by the company Eurofins (France). The kinase profiler was performed by the company Eurofins (Discovery, Panlab and Cerep).
The target of assay [2] is Monoamine Oxidase MAO-A (Homo sapiens, UniProt P21397). Description: Safety screen. In kind it is biochemical.
Description: as §1
The subject of assay [3] is Transporter, Adenosine. Description: Safety screen. In kind it is binding, guinea pig.
Description: (§2) Blood cell counts, kinase profiler, safety screen, bacterial cytotoxicity, Ames, micronucleus assays were performed by the company Eurofins (France).
Assay [4] has as its target SAPK2a(h) (Homo sapiens, UniProt Q16539). Description: Kinase Profiler. The assay is classed as biochemical.
Description: (§3) The kinase profiler was performed by the company Eurofins (Discovery, Panlab and Cerep).
In assay [5] the target is HPK1(h) (Homo sapiens, UniProt Q92918). The assay is described as follows: Kinase Profiler. The assay is classed as biochemical.
Description: as §3
Assay [6] addresses NUAK2(h) (Homo sapiens, UniProt Q9H093). Description: Kinase Profiler. In kind it is biochemical.
Description: as §3
Assay [7] deals with PKG1β(h) (Homo sapiens, UniProt Q13976). Description: Kinase Profiler. The assay is classed as biochemical.
Description: as §3
Assay [8] has as its target Serotonin (5-Hydroxytryptamine) 5-HT2C (Homo sapiens, UniProt P28335). Description: Safety screen. In kind it is binding.
Description: as §2
Assay [9] addresses Adrenergic β1 (Homo sapiens, UniProt P08588). The assay is described as follows: Safety screen. In kind it is binding.
Description: as §1
Assay [10] concerns the target Platelet Activating Factor (PAF) (Homo sapiens, UniProt P25105). Description: Safety screen. In kind it is binding.
Description: as §1
The target in assay [11] is IRAK4(h) (Homo sapiens, UniProt Q9NWZ3). Description: Kinase Profiler. The assay is classed as biochemical.
Description: as §3
In assay [12] the target is CDK16/cyclinY(h) (Homo sapiens, UniProt Q00536). The assay is described as follows: Kinase Profiler. The assay is classed as biochemical.
Description: as §1
In assay [13] the target is KDR(h) (Homo sapiens, UniProt P35968). The assay is described as follows: Kinase Profiler. In kind it is biochemical.
Description: as §3
Assay [14] concerns the target Bmx(h) (Homo sapiens, UniProt P51813). The assay is described as follows: Kinase Profiler. The assay is classed as biochemical.
Description: as §1
For assay [15], the target named is DYRK1A(h) (Homo sapiens, UniProt Q13627). The assay is described as follows: Kinase Profiler. In kind it is biochemical.
Description: as §1
In assay [16] the target is EphB2(h) (Homo sapiens, UniProt P29323). Description: Kinase Profiler. In kind it is biochemical.
Description: as §1
The target of assay [17] is CK2(h) (Homo sapiens, UniProt P68400). Description: Kinase Profiler. The assay is classed as biochemical.
Description: as §3
For assay [18], the target named is PIP4K2a(h) (Homo sapiens, UniProt P48426). Description: Kinase Profiler. The assay is classed as biochemical.
Description: as §3
For assay [19], the target named is MLK2(h) (Homo sapiens, UniProt Q02779). Description: Kinase Profiler. In kind it is biochemical.
Description: as §1
Assay [20] concerns the target PKG1α(h) (Homo sapiens, UniProt Q13976). The assay is described as follows: Kinase Profiler. In kind it is biochemical.
Description: as §3
For assay [21], the target named is Fer(h) (Homo sapiens, UniProt P16591). Description: Kinase Profiler. In kind it is biochemical.
Chain of Fer(h) (P16591 whole entry): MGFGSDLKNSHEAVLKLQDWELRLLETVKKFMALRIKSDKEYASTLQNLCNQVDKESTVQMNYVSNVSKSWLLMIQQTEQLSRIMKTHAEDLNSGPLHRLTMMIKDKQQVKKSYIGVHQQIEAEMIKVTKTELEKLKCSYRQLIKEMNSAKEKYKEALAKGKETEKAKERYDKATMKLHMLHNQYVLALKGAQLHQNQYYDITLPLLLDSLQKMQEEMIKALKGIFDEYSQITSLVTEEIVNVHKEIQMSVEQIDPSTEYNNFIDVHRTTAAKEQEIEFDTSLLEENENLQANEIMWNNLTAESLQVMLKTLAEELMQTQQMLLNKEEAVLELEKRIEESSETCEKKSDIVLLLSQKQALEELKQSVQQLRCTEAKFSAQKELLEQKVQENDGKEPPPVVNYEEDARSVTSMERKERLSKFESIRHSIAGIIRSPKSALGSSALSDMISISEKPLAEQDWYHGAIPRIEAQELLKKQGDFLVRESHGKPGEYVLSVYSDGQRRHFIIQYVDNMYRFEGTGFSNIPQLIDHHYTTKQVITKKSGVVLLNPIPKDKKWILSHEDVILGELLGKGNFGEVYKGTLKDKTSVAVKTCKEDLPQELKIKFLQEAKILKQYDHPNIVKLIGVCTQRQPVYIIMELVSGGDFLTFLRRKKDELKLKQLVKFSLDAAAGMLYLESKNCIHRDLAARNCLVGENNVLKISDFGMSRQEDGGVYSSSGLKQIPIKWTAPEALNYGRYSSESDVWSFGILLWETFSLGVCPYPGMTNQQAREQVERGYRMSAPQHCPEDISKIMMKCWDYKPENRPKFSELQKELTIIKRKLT
Description: as §3

Chain of Serotonin (5-Hydroxytryptamine) 5-HT2C (P28335 33-458): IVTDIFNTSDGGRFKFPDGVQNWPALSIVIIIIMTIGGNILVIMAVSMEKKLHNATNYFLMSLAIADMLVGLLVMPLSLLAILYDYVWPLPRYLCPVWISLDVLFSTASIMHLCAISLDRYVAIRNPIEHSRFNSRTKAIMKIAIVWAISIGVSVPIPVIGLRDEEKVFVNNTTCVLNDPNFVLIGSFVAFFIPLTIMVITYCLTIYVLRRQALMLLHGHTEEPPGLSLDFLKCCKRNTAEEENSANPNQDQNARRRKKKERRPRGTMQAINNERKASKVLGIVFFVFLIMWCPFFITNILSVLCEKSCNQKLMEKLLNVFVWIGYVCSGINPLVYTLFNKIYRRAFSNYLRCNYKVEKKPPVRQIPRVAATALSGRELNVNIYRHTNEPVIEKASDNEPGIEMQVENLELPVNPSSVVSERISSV
Chain of SAPK2a(h) (Q16539 whole entry): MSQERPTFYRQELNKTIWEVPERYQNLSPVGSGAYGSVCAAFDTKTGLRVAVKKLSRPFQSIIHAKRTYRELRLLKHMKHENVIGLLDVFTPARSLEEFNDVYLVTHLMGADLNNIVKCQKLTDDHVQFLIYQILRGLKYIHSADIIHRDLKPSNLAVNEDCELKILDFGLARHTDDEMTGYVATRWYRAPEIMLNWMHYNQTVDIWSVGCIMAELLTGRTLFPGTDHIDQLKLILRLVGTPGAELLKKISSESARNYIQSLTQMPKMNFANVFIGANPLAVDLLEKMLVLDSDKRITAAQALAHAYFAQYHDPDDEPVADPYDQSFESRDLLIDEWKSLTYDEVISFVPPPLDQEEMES
Chain of Platelet Activating Factor (PAF) (P25105 whole entry): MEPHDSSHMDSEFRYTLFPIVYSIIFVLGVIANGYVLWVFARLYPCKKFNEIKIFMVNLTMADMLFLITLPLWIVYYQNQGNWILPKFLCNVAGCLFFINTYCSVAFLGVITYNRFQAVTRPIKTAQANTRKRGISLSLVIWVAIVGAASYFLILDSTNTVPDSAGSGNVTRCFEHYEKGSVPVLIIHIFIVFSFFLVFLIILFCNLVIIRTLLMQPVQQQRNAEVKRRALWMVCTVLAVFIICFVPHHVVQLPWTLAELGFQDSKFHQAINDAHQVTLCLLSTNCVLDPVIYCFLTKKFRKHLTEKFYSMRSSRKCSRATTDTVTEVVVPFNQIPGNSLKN
Chain of PKG1β(h) (Q13976 1-686 isoform Q13976-2): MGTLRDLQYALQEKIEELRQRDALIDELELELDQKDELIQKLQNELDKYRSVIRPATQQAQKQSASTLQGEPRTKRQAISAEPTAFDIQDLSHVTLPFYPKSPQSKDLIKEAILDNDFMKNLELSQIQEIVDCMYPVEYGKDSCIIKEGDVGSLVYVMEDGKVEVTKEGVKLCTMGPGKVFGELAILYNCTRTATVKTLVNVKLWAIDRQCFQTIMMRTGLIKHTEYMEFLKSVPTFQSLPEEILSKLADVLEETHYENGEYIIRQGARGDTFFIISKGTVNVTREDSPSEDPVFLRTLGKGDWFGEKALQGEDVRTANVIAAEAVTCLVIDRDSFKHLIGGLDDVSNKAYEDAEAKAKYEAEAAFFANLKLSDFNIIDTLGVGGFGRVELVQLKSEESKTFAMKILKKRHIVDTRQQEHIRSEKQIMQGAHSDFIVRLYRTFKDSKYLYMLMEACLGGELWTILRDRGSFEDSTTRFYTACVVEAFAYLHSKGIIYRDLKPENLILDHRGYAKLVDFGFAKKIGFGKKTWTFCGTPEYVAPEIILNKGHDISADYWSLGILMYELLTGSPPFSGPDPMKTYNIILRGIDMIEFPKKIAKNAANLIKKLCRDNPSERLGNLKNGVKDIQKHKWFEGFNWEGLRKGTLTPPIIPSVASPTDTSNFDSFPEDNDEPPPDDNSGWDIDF
Chain of MLK2(h) (Q02779 whole entry): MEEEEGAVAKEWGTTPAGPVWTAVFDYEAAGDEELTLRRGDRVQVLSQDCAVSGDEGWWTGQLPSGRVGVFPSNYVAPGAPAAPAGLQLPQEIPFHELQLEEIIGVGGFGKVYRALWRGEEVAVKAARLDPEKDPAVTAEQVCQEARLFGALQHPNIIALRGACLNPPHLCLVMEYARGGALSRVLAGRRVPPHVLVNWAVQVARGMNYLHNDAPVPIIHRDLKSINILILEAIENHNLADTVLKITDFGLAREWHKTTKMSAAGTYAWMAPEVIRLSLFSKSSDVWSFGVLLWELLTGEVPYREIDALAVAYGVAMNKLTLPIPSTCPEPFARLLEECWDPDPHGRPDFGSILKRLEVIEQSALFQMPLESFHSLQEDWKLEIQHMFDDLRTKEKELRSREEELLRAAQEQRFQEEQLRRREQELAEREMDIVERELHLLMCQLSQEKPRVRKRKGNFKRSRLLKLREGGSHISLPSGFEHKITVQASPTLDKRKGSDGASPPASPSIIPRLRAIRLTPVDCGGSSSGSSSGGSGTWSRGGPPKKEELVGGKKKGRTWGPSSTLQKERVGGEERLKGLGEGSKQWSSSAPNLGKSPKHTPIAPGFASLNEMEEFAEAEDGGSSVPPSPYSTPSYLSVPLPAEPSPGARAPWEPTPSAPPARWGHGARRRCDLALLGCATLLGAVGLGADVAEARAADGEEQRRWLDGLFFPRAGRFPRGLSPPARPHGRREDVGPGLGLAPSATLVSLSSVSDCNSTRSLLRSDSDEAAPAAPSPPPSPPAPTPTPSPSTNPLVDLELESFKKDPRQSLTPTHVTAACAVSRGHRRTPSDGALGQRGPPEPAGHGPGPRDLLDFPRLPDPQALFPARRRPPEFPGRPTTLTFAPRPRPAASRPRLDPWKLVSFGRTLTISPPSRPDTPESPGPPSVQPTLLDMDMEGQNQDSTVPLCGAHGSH
Chain of PKG1α(h) (Q13976 whole entry): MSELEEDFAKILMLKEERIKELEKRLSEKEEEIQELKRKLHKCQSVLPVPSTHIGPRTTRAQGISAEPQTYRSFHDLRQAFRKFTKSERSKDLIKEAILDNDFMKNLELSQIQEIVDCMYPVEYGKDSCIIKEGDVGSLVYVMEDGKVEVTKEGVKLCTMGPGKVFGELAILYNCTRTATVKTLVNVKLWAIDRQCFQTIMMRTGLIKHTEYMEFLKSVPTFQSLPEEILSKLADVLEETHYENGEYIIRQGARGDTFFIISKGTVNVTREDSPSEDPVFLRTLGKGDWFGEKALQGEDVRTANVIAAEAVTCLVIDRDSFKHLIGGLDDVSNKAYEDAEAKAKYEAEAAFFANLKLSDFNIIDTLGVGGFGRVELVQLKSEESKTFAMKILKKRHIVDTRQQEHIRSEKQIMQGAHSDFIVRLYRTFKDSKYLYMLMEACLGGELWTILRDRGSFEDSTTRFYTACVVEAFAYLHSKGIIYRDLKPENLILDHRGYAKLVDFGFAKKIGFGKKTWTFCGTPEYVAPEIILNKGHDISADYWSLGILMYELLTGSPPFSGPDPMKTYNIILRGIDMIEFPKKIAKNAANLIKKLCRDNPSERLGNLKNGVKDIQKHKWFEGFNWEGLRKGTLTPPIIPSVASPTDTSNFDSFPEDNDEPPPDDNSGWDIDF
Chain of NUAK2(h) (Q9H093 whole entry): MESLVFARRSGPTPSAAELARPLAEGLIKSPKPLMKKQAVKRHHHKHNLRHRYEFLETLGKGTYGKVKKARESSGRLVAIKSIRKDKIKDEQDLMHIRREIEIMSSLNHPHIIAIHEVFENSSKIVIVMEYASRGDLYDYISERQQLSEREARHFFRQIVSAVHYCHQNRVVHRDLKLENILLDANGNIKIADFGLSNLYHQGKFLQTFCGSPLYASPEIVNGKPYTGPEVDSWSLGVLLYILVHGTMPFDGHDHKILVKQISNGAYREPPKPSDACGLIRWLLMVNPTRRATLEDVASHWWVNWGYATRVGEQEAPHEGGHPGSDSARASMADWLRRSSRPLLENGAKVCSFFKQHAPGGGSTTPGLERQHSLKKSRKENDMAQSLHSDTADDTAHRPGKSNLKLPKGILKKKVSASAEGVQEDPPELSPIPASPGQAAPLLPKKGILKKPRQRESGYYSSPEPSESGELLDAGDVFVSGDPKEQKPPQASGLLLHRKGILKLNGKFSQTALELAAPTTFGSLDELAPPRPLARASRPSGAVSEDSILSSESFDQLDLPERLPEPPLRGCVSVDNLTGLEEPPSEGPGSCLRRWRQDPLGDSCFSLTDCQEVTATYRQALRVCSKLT

Consider `COc1ccc(OC)c(NS(=O)(=O)c2ccc(NC(=O)CCSc3ccc(C)cc3)cc2)c1` [Compound A41], for which the “% inh.” value amounted to 6% in [1]; 10% in assay [2]; 37% in [3]; 56% in [8]; 2% in assay [9]; 78% in assay [10]. Also, the “Activity(%)” value in assay [4] is recorded as 100%; in assay [5], 98%; in assay [6], 110%; in assay [7] it was 105%; in assay [11] it was 99%; in [12], 107%. The “Activity(%)” value is 113% in assay [13]; 124% in assay [14]; 93% in assay [15]; 97% in [16]; 110% in assay [17]; 95% in [18]. The figures for the “Activity(%)” value in [19], in [20] and in assay [21] were 109%, 113% and 114%, respectively.

The values above are taken from PMC12281424, “A Rac-specific competitive inhibitor of guanine nucleotide binding reduces metastasis in triple-negative breast cancer” (Cell Reports Medicine, 2025).
